Laboratory results reported in patent publication EP0068268A1, “Enhancer of anti-tumour effect” (Yamasa Shoyu Kabushiki Kaisha, priority 1981, dated 1983).
Like-named read-outs stand apart in the source and are kept apart here.

Key:
EMT-6 tumors [1] = test: Radiosensitizing effect on experimental tumors in mice (cure percentages and TCD50, Experiment 3); assay type: in vivo, BALB/c-strain female mice; details: for TCD50: 100 mg/kg intraperitoneally after 32 MeV electron beam irradiation, control 2400; for Cure number/Number treated (%) / Cure number/Number treated: 100 mg/kg intraperitoneally after irradiation; for Cure number/Number treated (%): cure percentage; for Cure number/Number treated: observation longer than 90 days; for TCD50 (ratio): ratio to control (1.0)
Protocol: EMT-6 tumor cells ([…]) were inoculated intradermally into the right thighs of BALB/c-strain female mice (8 weeks old). When the tumor sizes reached 5.5 to 8.0 mm after inoculation of the tumor cells, irradiation was locally carried out with 1,000 rad to 2,700 rad of 32 MeV electron beam under no anesthesia, and thereafter 3'-dAdo and N^6-butyryl-3'-dAdo, each dissolved in physiological saline solution, were administered intraperitoneally in a dose of 100 mg/kg. After the treatments, observation was continued for longer than 90 days, and the cure percentages were determined for comparison with the control group. [formula] [formula]

Acute toxicity test = test: Acute toxicity test; parameters: species or system ICR mice; details: mouse, in vivo, ip
Protocol: Various quantities of N -butyryl-3'-dAdo were administered intraperitoneally to ICR mice (male, 8-weeks old, 10 mice for each group) in doses of 250 mg to 1,000 mg/kg, and the mice were subjected to observation for a week.

RIF1 tumors = test: Radiosensitizing effect on experimental tumors in mice (tumor size after irradiation, Experiment 4); assay type: in vivo, C3H/Heston-strain female mice; details: for Mean tumor diameter (mm): n=7; for Sensitizing effect: relative to irradiation alone
Protocol: RIF1 tumor cells ([…]) were inoculated intradermally into the right thighs of C3H/Heston-strain female mice (8 weeks old). When the tumor sizes reached 6.0 to 10.0 mm after inoculation of the tumor cells, irradiation was carried out with 2,500 rad/min. of an electron beam, and thereafter N^6-acetyl-3'-dAdo, N^6-butyryl-3'-dAdo, N^6-hexanoyl-3'-dAdo, and N - octanoyl-3'-dAdo, each dissolved in physiological saline solution, were administered intraperitoneally in a dose of 100 mg/kg. After the treatments, the tumor sizes in terms of diameters in three-axial directions were measured on the 10th day and the 20th day (9th day and the 21st day only in case of N^6-butyryl-3'-dAdo).

EMT-6 tumors [2] = test: Enhancement of the effect of anti-tumor agents on experimental tumors in mice (Experiment 5); assay type: in vivo, BALB/c-strain mice; details: 14th day after treatment
Protocol: EMT-6 tumor cells (1 x 10^6) were inoculated intradermally into the right thighs of BALB/c-strain mice (8 weeks old). On the 12th day after inoculation of the tumor cells and thereafter, each chemical in a physiological saline solution was administered intrapenitoneally to each mouse four times a week in the indicated doses for respective agents. The pharmaceutical agents of the present invention were administered one hour after administration of the anti-tumor agents. After commencement of the treatment with pharmaceutical agents, the tumor sizes were measured every other day and compared with those of the control group.

EMT-6 tumors [3] = test: Radiosensitizing effect on experimental tumor in mice (tumor size after local irradiation, Experiment 2); assay type: in vivo, BALB/c-strain female mice; details: for Mean tumor diameter (mm): 1,500 rad 32 MeV electron beam, n = 9; for Sensitizing effect: diameter ratio with agent / diameter ratio with irradiation alone
Protocol: EMT-6 tumor cells (2 x 10^5) were inoculated intradermally into the right thighs of BALB/c-strain female mice (8 weeks old, 6 or more mice for each group). When the tumor size reached 5.5 to 7.5 mm in diameter after inoculation of the tumor cells, local irradiation with a 32 MeV electron beam was carried out at 1,500 rad under no anesthesia and thereafter N^6-butyryl-3'-dAdo dissolved in physiological saline solution, was administered intraperitoneally to each mouse in 100 mg/kg. On the 9th day and 20th day after these treatments, t tumor sizes were measured in tri-dimensional diameters, and compared with the control group with respect to the following items: [formula] [formula] The results are shown in Table 2, in which "cure" means that the tumors completely vanished during the observation period.

[4] = test system: Chinese hamster-HA-1 cells; test: Radiosensitizing effect on the tumor cells in culture (PLDR inhibition, colony forming ability after X-rays); assay type: cell-based
Protocol: Cells under stationary phase, prepared by planting 2 x 10^5 cells/well of Chinese hamster-HA-1 cells in a multi-well dish and exchanging cultural medium every day starting on the third day and thereafter were irradiated with 1,000 R of X-rays. Immediately after radiation, N6-butyryl-3'-dAdo in Hanks' balanced salt solution were administered. Then, after elapse of various times, the cells were taken off with trypsin, and a suitable number of cells were transferred into petri dishes for testing colony forming ability and plating efficiencies. The percentages of survival were calculated with corrections by the plating efficiencies with the pharmaceutical agents alone.

[5] = 10th day after treatment, 2500 rad, then 100 mg/kg intraperitoneally
[6] = 20th day after treatment, 2500 rad, then 100 mg/kg intraperitoneally
[7] = 20th day after treatment, but 21st day for this compound
[8] = column head 10th day after treatment, but 9th day for this compound
[9] = FT-207 100mg/kg x 7 plus enhancer 50mg/kg x 7

Compound: Nc1ncnc2c1ncn2[C@@H]1O[C@H](CO)C[C@H]1O [3'-dAdo, 3'-deoxyadenosine, reference compound]
- TCD50 (EMT-6 tumors [1]): 1600
- Cure number/Number treated (%) (EMT-6 tumors [1]; 1,000 rad): 17%
- Cure number/Number treated (EMT-6 tumors [1]; 1,000 rad): 3/18
- Cure number/Number treated (%) (EMT-6 tumors [1]; 1,500 rad): 48%
- Cure number/Number treated (EMT-6 tumors [1]; 1,500 rad): 14/29
- Cure number/Number treated (%) (EMT-6 tumors [1]; 2,100 rad): 79%
- Cure number/Number treated (EMT-6 tumors [1]; 2,100 rad): 11/14
- Cure number/Number treated (%) (EMT-6 tumors [1]; 2,700 rad): 67%
- Cure number/Number treated (EMT-6 tumors [1]; 2,700 rad): 10/15
- TCD50 (ratio) (EMT-6 tumors [1]): 0.67
- LD50 at 168 h (Acute toxicity test; intraperitoneally, ICR mice male, observation for a week, read-out: LD50): 280 mg/kg

Compound: CCCCCCCC(=O)Nc1ncnc2c1ncn2[C@@H]1O[C@H](CO)C[C@H]1O [N^6-octanoyl-3'-dAdo]
- Diameter ratio (RIF1 tumors; [5]): 1.04±0.04
- Mean tumor diameter (mm) (RIF1 tumors; [5]): 7.50±0.37 mm
- Sensitizing effect (RIF1 tumors; 10th day after treatment): 0.88
- Diameter ratio (RIF1 tumors; [6]): 1.33±0.02
- Mean tumor diameter (mm) (RIF1 tumors; [6]): 9.61±0.46 mm
- Sensitizing effect (RIF1 tumors; 20th day after treatment): 0.75

Compound: CC(=O)Nc1ncnc2c1ncn2[C@@H]1O[C@H](CO)C[C@H]1O [N^6-acetyl-3'-dAdo]
- Diameter ratio (RIF1 tumors; [5]): 1.12±0.06
- Mean tumor diameter (mm) (RIF1 tumors; [5]): 7.86±0.55 mm
- Sensitizing effect (RIF1 tumors; 10th day after treatment): 0.95
- Diameter ratio (RIF1 tumors; [6]): 1.49±0.06
- Mean tumor diameter (mm) (RIF1 tumors; [6]): 10.39±0.51 mm
- Sensitizing effect (RIF1 tumors; 20th day after treatment): 0.84

Compound: CCCCCC(=O)Nc1ncnc2c1ncn2[C@@H]1O[C@H](CO)C[C@H]1O [N^6-hexanoyl-3'-dAdo]
- Diameter ratio (RIF1 tumors; [5]): 1.11±0.05
- Mean tumor diameter (mm) (RIF1 tumors; [5]): 7.90±0.47 mm
- Sensitizing effect (RIF1 tumors; 10th day after treatment): 0.94
- Diameter ratio (RIF1 tumors; [6]): 1.46±0.05
- Mean tumor diameter (mm) (RIF1 tumors; [6]): 10.37±0.42 mm
- Sensitizing effect (RIF1 tumors; 20th day after treatment): 0.82

Compound: O=c1[nH]c(=O)n(C2CCCO2)cc1F (stereo not drawn) [FT-207, 1-(2-tetrahydrofuryl)-5-fluorouracil, reference compound]
- Diameter ratio, value in brackets (relative to control = 1.00) (EMT-6 tumors [2]; anti-tumor agent alone, 100mg/kg x 7): 0.76
- Mean tumor diameter (mm) (EMT-6 tumors [2]; anti-tumor agent alone, 100mg/kg x 7 intraperitoneally, n = 4): 7.80±1.64 mm

Compound: CCCC(=O)Nc1ncnc2c1ncn2[C@@H]1O[C@H](CO)C[C@H]1O [N^6-butyryl-3'-dAdo]
- Diameter ratio (RIF1 tumors; [7]): 1.35±0.08
- Mean tumor diameter (mm) (RIF1 tumors; 20th day after treatment, but 21st day for this compound, 2500 rad, then 100 mg/kg intraperitoneally): 10.28±0.36 mm
- Sensitizing effect (RIF1 tumors; [7]): 0.76
- Diameter ratio (RIF1 tumors; [8]): 0.90±0.08
- Mean tumor diameter (mm) (RIF1 tumors; column head 10th day after treatment, but 9th day for this compound, 2500 rad, then 100 mg/kg intraperitoneally): 6.71±0.63 mm
- Sensitizing effect (RIF1 tumors; [8]): 0.76
- Mean tumor diameter (mm) (EMT-6 tumors [3]; 9 days after treatment, then 100 mg/kg intraperitoneally): 5.36±1.13 mm
- Diameter ratio (EMT-6 tumors [3]; 9 days after treatment, 1,500 rad, then 100 mg/kg intraperitoneally): 0.83±0.18
- Sensitizing effect (EMT-6 tumors [3]; 9 days after treatment): 0.86
- Mean tumor diameter (mm) (EMT-6 tumors [3]; 20 days after treatment, then 100 mg/kg intraperitoneally): 0.0±0.0 mm
- Cured cases (EMT-6 tumors [3]; 20 days after treatment, cure = tumors completely vanished during the observation period, 1,500 rad + 100 mg/kg i.p.): 9/9
- Sensitizing effect (EMT-6 tumors [3]; 20 days after treatment): 0.00
- TCD50 (EMT-6 tumors [1]): 1080
- Cure number/Number treated (%) (EMT-6 tumors [1]; 1,000 rad): 40%
- Cure number/Number treated (EMT-6 tumors [1]; 1,000 rad): 6/15
- Cure number/Number treated (%) (EMT-6 tumors [1]; 1,500 rad): 65%
- Cure number/Number treated (EMT-6 tumors [1]; 1,500 rad): 13/20
- Cure number/Number treated (%) (EMT-6 tumors [1]; 2,100 rad): 93%
- Cure number/Number treated (EMT-6 tumors [1]; 2,100 rad): 14/15
- Cure number/Number treated (%) (EMT-6 tumors [1]; 2,700 rad): 100%
- Cure number/Number treated (EMT-6 tumors [1]; 2,700 rad): 16/16
- TCD50 (ratio) (EMT-6 tumors [1]): 0.45
- LD50 at 168 h (Acute toxicity test): 710 mg/kg
- Diameter ratio (mm) (EMT-6 tumors [2]; [9]): 0.97±0.23
- Diameter ratio, value in brackets (relative to control = 1.00) (EMT-6 tumors [2]; [9]): 0.62
- Mean tumor diameter (mm) (EMT-6 tumors [2]; FT-207 100mg/kg x 7 plus enhancer 50mg/kg x 7 given one hour later, n = 5): 6.72±1.69 mm
- Diameter ratio (mm) (EMT-6 tumors [2]; enhancer alone, 50mg/kg x 7): 1.36±0.32
- Diameter ratio, value in brackets (relative to control = 1.00) (EMT-6 tumors [2]; enhancer alone, 50mg/kg x 7): 0.87
- Mean tumor diameter (mm) (EMT-6 tumors [2]; enhancer alone, 50mg/kg x 7 intraperitoneally, n = 5): 9.92±2.45 mm
- Enhancing effect (EMT-6 tumors [2]; ratio in combination / (ratio anti-tumor agent alone x ratio enhancer alone), FT-207 100mg/kg x 7 plus enhancer 50mg/kg x 7): 0.94
- Plating efficiency (%) After 1 hour ([4]; 40 µg/ml given immediately after 1,000 R of X-rays, stationary phase cells, 1 hour after irradiation): 1.4%
- Plating efficiency (%) After 4 hours ([4]; 40 µg/ml given immediately after 1,000 R of X-rays, stationary phase cells, 4 hours after irradiation): 2.2%
- Plating efficiency (%) After 7 hours ([4]; 40 µg/ml given immediately after 1,000 R of X-rays, stationary phase cells, 7 hours after irradiation): 2.4%
- inhibition of repair (PLDR) after irradiation with X-rays ([4]; result in words, from Table 1): inhibit repair (PLDR)
- toxicity, as examined by plating efficiencies ([4]; result in words, agent alone): Substantially no toxicity was observed
